Source: US20210009542A1 (Calico Life Sciences LLC, priority 2018, published 2021)

Each compound was assayed against T1, His tagged PTPN2 (TC45) protein (Homo sapiens, UniProt P17706) (assay: Mobility shift assay (MSA) for potency of PTPN2 inhibitors). Conditions: read-out: PTPN2 MSA IC50.
T1 construct: made in house
T1 sequence (P17706 with tags, fused parts or gaps isoform P17706-2): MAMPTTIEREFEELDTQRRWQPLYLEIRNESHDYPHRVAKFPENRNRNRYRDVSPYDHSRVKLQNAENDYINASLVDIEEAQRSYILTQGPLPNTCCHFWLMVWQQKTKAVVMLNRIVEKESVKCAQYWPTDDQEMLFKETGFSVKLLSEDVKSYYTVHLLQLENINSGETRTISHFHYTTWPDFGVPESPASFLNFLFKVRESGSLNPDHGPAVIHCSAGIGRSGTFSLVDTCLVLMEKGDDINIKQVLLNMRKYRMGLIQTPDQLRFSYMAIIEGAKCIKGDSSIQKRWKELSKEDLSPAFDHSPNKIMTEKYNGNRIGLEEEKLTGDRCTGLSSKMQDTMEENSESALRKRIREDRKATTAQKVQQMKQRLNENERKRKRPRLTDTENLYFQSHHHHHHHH
Assay type: biochemical
Description: Compound activity was determined using in house His tagged PTPN2 (TC45) protein (SEQ ID NO: 1) in an in vitro enzymatic reaction. The enzymatic assay used to determine activity was a mobility shift assay using a LabChip EZ Reader by Caliper Life Sciences. The enzymatic reaction was carried out in assay buffer (50 mM HEPES pH 7.5, 1 mM EGTA, 10 mM EDTA, 0.01% Tween® 20, and 2 mM DTT). The compounds were dispensed on a white 384 well ProxiPlate™ (PerkinElmer Catalog #6008289) plate using the Labcyte Echo at varying concentrations (12 point, 1:3 dilution). The enzyme (at 0.5 nM) was incubated with compound for 10 minutes at room temperature. Then the substrate (phosphorylated insulin receptor probe sequence: ((OG488)-(NH—CH2—CH2—O—CH2—CH2—O—CH2—CO)-T-R-D-I-(PY)-E-T-D-Y-Y-R-K-K-NH2) (SEQ ID NO: 2) was added at […] to the plates and incubated for another 10 minutes at room temperature. Finally, a quench solution (water and 4-bromo-3-(2-oxo-2-propoxyethoxy)-5-(3-{[1-(phenylmethanesulfonyl)piperidin-4-yl]amino}phenyl)thiophene-2-carboxylic acid) was added to the plates, which were then run on the EZ Reader (excitation 488 nm, emission 530 nm) to measure % conversion (the amount of phosphorylated substrate which was de-phosphorylated by PTPN2). […] The % inhibition was then used to calculate the IC50 values.
`O=C1CN(c2c(O)cc3ccc(OCc4cn[nH]c4)cc3c2F)S(=O)(=O)N1` [Compound 133, 5-{1-fluoro-3-hydroxy-7-[(1H-pyrazol-4-yl)methoxy]naphthalen-2-yl}-1λ6,2,5-thiadiazolidine-1,1,3-trione] gave an IC50 of 1 to 10 nM.
For `CC(C)COc1ccc2cc(O)c(N3CC(=O)NS3(=O)=O)c(F)c2c1` [Compound 134, 5-[1-fluoro-3-hydroxy-7-(2-methylpropoxy)naphthalen-2-yl]-1λ^6,2,5-thiadiazolidine-1,1,3-trione], the IC50 was > 100 nM.
`O=C1CN(c2c(O)cc3ccc(C(=O)NCC4CC4)cc3c2F)S(=O)(=O)N1` [Compound 136, N-(cyclopropylmethyl)-8-fluoro-6-hydroxy-7-(1,1,4-trioxo-1λ^6,2,5-thiadiazolidin-2-yl)naphthalene-2-carboxamide] gave an IC50 of 1 to 10 nM.
`O=C1CN(c2c(O)cc3ccc(OCCNCCOC(F)(F)F)cc3c2F)S(=O)(=O)N1` [Compound 137, 5-[1-fluoro-3-hydroxy-7-(2-{[2-(trifluoromethoxy)ethyl]amino}ethoxy)naphthalen-2-yl]-1λ^6,2,5-thiadiazolidine-1,1,3-trione] showed an IC50 of 1 to 10 nM.
Work on `COCCNCCOc1ccc2cc(O)c(N3CC(=O)NS3(=O)=O)c(F)c2c1` [Compound 138, 5-(1-fluoro-3-hydroxy-7-{2-[(2-methoxyethyl)amino]ethoxy}naphthalen-2-yl)-1λ^6,2,5-thiadiazolidine-1,1,3-trione] yielded an IC50 of 1 to 10 nM.
Compound `CNCCCc1ccc2cc(O)c(N3CC(=O)NS3(=O)=O)c(F)c2c1` [Compound 139, 5-{1-fluoro-3-hydroxy-7-[3-(methylamino)propyl]naphthalen-2-yl}-1λ^6,2,5-thiadiazolidine-1,1,3-trione] has an IC50 of 1 to 10 nM.
`CCNCCCc1ccc2cc(O)c(N3CC(=O)NS3(=O)=O)c(F)c2c1` [Compound 140, 5-{7-[3-(ethylamino)propyl]-1-fluoro-3-hydroxynaphthalen-2-yl}-1λ^6,2,5-thiadiazolidine-1,1,3-trione] was tested, and the IC50 was 1 to 10 nM.
Work on `O=C1CN(c2c(O)cc3ccc(OCCNC4CC4)cc3c2F)S(=O)(=O)N1` [Compound 142, 5-{7-[2-(cyclopropylamino)ethoxy]-1-fluoro-3-hydroxynaphthalen-2-yl}-1λ^6,2,5-thiadiazolidine-1,1,3-trione] yielded an IC50 of 1 to 10 nM.
Compound `CNCCOc1ccc2cc(O)c(N3CC(=O)NS3(=O)=O)c(F)c2c1` [Compound 143, 5-{1-fluoro-3-hydroxy-7-[2-(methylamino)ethoxy]naphthalen-2-yl}-1λ^6,2,5-thiadiazolidine-1,1,3-trione] has an IC50 of 1 to 10 nM.
For `CCNCCOc1ccc2cc(O)c(N3CC(=O)NS3(=O)=O)c(F)c2c1` [Compound 144, 5-{7-[2-(ethylamino)ethoxy]-1-fluoro-3-hydroxynaphthalen-2-yl}-1λ^6,2,5-thiadiazolidine-1,1,3-trione], the IC50 was 1 to 10 nM.
`CC(C)NCCOc1ccc2cc(O)c(N3CC(=O)NS3(=O)=O)c(F)c2c1` [Compound 145, 5-(1-fluoro-3-hydroxy-7-{2-[(propan-2-yl)amino]ethoxy}naphthalen-2-yl)-1λ^6,2,5-thiadiazolidine-1,1,3-trione] was tested, and the IC50 was 10 to 100 nM.
For `CCP(=O)(CC)CCCOc1ccc2cc(O)c(N3CC(=O)NS3(=O)=O)c(F)c2c1` [Compound 146, 5-{7-[3-(diethylphosphoryl)propoxy]-1-fluoro-3-hydroxynaphthalen-2-yl}-1λ^6,2,5-thiadiazolidine-1,1,3-trione], the IC50 was 1 to 10 nM.
With `CC(C)CCNc1ccc2c(F)c(O)c(N3CC(=O)NS3(=O)=O)c(F)c2c1` [Compound 148, 5-{1,4-difluoro-3-hydroxy-7-[(3-methylbutyl)amino]naphthalen-2-yl}-1λ^6,2,5-thiadiazolidine-1,1,3-trione] the IC50 was 1 to 10 nM.
For `C[C@@H](O)CCOc1ccc2cc(O)c(N3CC(=O)NS3(=O)=O)c(F)c2c1` [Compound 149, 5-{1-fluoro-3-hydroxy-7-[(3R)-3-hydroxybutoxy]naphthalen-2-yl}-1λ^6,2,5-thiadiazolidine-1,1,3-trione], the IC50 was 1 to 10 nM.
